Source: patent US20100099314A1, “IONIC LIQUIDS DERIVED FROM SURFACTANTS” (priority 2004, published 2010)

Experiment: Water Miscibility Test
Assay type: physicochemical
Conditions: 0.5 g ionic liquid and 4.5 g de-ionized water, sonicated 1.5 hours; miscible if homogenous transparent system within 15 minutes of standing
Description: The water miscibility of an ionic liquid is measured by the following water miscibility test. A mixture of 0.5 g ionic liquid and 4.5 g de-ionized water are sonicated in a Bransonic Ultrasonic Bath (model# 1210R-MTH, 50/60 Hz, 117 volts, 1.3 AMPS) according to manufacture's specifications for 1.5 hours. Thereafter, if a homogenous transparent system results within 15 minutes of standing without agitation, then the ionic liquid is water miscible.

## CC(C)CC(C)CC(CC(C)C)OCCOCCOCCOS(=O)(=O)[O-].CCCCCCCCCCCC[N+](C)(C)O (centres unmarked) [Example 1, N-dodecyl-N,N-dimethylamine N-oxide 2,4,8-trimethylnonyl-6-triethoxysulfate]
  Water Miscible?: No

## CCCCCCCCCCCCOCCOS(=O)(=O)[O-].CCCCCCCCCCCC[N+](C)(C)O [Example 2, N-dodecyl-N,N-dimethylamine N-oxide dodecylethoxysulfate]
  Water Miscible?: No
